Laboratory results published in the supplement of paper PMC10307832.

Assays:
Test in all cases: relative viability (nuclei count vs DMSO), 5 days (fraction); higher = more cells survive
Idelalisib + Olaparib = compound: CC[C@H](Nc1ncnc2[nH]cnc12)c1nc2cccc(F)c2c(=O)n1-c1ccccc1 [Idelalisib] + O=C(c1cc(Cc2n[nH]c(=O)c3ccccc23)ccc1F)N1CCN(C(=O)C2CC2)CC1 [Olaparib] (partner 8 µM)
Outline: (§1)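 Values are medians from duplicate plates. Each reflects relative viability, defined as the nuclei count of treated wells over that of vehicle wells. Lung cancer cell lines in 1536-well plates were pin-tool dosed one day after seeding with one drug alone or with a fixed anchor-drug dose plus five library-drug doses (not always all listed) in √10 steps, then fixed, stained and imaged at 4× after 5 days.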

Pemetrexed + Alpelisib = compound: Nc1nc2[nH]cc(CCc3ccc(C(=O)N[C@@H](CCC(=O)O)C(=O)O)cc3)c2c(=O)[nH]1 [Pemetrexed] + Cc1nc(NC(=O)N2CCC[C@H]2C(N)=O)sc1-c1ccnc(C(C)(C)C(F)(F)F)c1 [Alpelisib] (partner 2 µM)
Outline: as §1

Pemetrexed + Olaparib = compound: Nc1nc2[nH]cc(CCc3ccc(C(=O)N[C@@H](CCC(=O)O)C(=O)O)cc3)c2c(=O)[nH]1 [Pemetrexed] + O=C(c1cc(Cc2n[nH]c(=O)c3ccccc23)ccc1F)N1CCN(C(=O)C2CC2)CC1 [Olaparib] (partner 8 µM)
Outline: as §1

Idelalisib + OSI-027 = compound: CC[C@H](Nc1ncnc2[nH]cnc12)c1nc2cccc(F)c2c(=O)n1-c1ccccc1 [Idelalisib] + COc1cccc2cc(-c3nc([C@H]4CC[C@H](C(=O)O)CC4)n4ncnc(N)c34)[nH]c12 [OSI-027] (partner 0.5 µM)
Outline: as §1

| Cell Line | relative viability (Idelalisib + Olaparib; first compound 0.04 µM) | relative viability (Idelalisib + Olaparib; first compound 0.1265 µM) | relative viability (Idelalisib + Olaparib; first compound 0.4 µM) | relative viability (Idelalisib + Olaparib; first compound 1.265 µM) | relative viability (Idelalisib + Olaparib; first compound 4 µM) | relative viability (Pemetrexed + Alpelisib; first compound 0.002 µM) | relative viability (Pemetrexed + Alpelisib; first compound 0.006325 µM) | relative viability (Pemetrexed + Alpelisib; first compound 0.02 µM) | relative viability (Pemetrexed + Alpelisib; first compound 0.06325 µM) | relative viability (Pemetrexed + Alpelisib; first compound 0.2 µM) | relative viability (Pemetrexed + Olaparib; first compound 0.006325 µM) | relative viability (Pemetrexed + Olaparib; first compound 0.02 µM) | relative viability (Pemetrexed + Olaparib; first compound 0.06325 µM) | relative viability (Pemetrexed + Olaparib; first compound 0.2 µM) | relative viability (Idelalisib + OSI-027; first compound 0.04 µM) | relative viability (Idelalisib + OSI-027; first compound 0.1265 µM) | relative viability (Idelalisib + OSI-027; first compound 0.4 µM) | relative viability (Idelalisib + OSI-027; first compound 1.265 µM) | relative viability (Idelalisib + OSI-027; first compound 4 µM) | relative viability (Pemetrexed + Olaparib; first compound 0.002 µM) |
| --- | --- | --- | --- | --- | --- | --- | --- | --- | --- | --- | --- | --- | --- | --- | --- | --- | --- | --- | --- | --- |
| Calu-6 | 0.669 | 0.61 | 0.533 | 0.657 | 0.53 | 0.995 | 1.01 | 1.05 | 0.918 | 0.954 | 0.525 | 0.646 | 0.524 | 0.578 |  |  |  |  |  |  |
| ChaGo-K-1 | 0.347 | 0.399 | 0.472 | 0.38 | 0.379 |  |  |  |  |  | 0.423 | 0.464 | 0.383 | 0.259 | 0.618 | 0.55 | 0.456 | 0.576 | 0.513 | 0.483 |
| EBC-1 | 0.721 | 0.777 | 0.763 | 0.65 | 0.588 | 0.747 | 0.848 | 0.939 | 0.836 | 0.518 | 0.714 | 0.723 | 0.665 | 0.545 |  |  |  |  |  | 0.684 |
| EKVX | 0.756 | 0.915 | 0.755 | 0.884 | 0.74 | 0.827 | 0.89 | 0.943 | 0.827 | 0.615 | 0.796 | 0.884 | 0.883 | 0.499 | 0.705 | 0.709 | 0.527 | 0.557 | 0.586 | 0.794 |
| EMC-BAC-2 | 0.459 | 0.518 | 0.477 | 0.472 | 0.476 | 0.795 | 0.676 | 0.801 | 0.738 | 0.693 | 0.458 | 0.5 | 0.493 | 0.497 | 0.388 | 0.411 | 0.308 | 0.363 | 0.352 | 0.455 |
| EPLC-272H | 1.01 | 0.916 | 0.686 | 0.637 | 0.619 | 0.876 | 0.938 | 1.11 | 0.962 | 0.847 | 0.835 | 1.01 | 0.564 | 0.271 | 0.304 | 0.296 | 0.271 | 0.294 | 0.274 | 0.592 |
| H3255 | 0.567 | 0.555 | 0.534 | 0.573 | 0.513 |  | 0.656 | 0.736 | 0.606 | 0.632 | 0.602 | 0.586 | 0.573 | 0.519 | 0.721 | 0.566 | 0.558 | 0.517 | 0.534 | 0.563 |
| HARA | 0.738 | 0.998 |  | 0.758 | 0.792 | 0.822 | 0.814 | 0.862 | 0.799 | 0.275 | 0.859 | 0.834 | 0.606 | 0.182 | 0.618 | 0.466 | 0.296 | 0.374 | 0.441 | 0.758 |
| HCC-15 | 0.743 | 0.583 | 0.699 | 0.799 | 0.707 | 0.821 | 0.847 | 0.867 | 0.666 | 0.519 | 0.724 | 0.804 | 0.601 | 0.353 | 0.702 | 0.754 | 0.509 | 0.869 | 0.668 | 0.644 |
